Reference: patent US5550139A, “Serine protease inhibitors” (The Wichita State University, priority 1994, dated 1996)
“And” between values parts separate entries of the source, which are not always exact repeats. Identical values can stand only once.

Legend:
[1] = target: T1, human leukocyte elastase (HLE) (Homo sapiens, UniProt P08246); experiment: Inactivation of human leukocyte elastase (kobs/[I]); assay type: biochemical
T1 construct: purchased Elastin Products Co., Owensville, Mo
T1 sequence (P08246 30-247 limits assumed): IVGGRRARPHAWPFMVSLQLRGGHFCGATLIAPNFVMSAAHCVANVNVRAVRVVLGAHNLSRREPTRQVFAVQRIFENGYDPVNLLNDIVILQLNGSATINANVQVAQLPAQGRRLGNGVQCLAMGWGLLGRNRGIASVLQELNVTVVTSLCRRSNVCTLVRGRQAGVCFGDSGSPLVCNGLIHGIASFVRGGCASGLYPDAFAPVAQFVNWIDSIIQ
Text: An in vitro assay can be used to screen compounds of the invention for the ability to reduce or inhibit serine proteinase activity. The human leukocyte elastase (HLE), cathepsin G (Cath G), and proteinase-3 assays have each been described (Groutas et al., J. Med. Chem. 32:1607-1611, 1989; Groutas et al., Arch. Biochem. Biophys. 294:144-146, 1992; Kao et al., J. Clin. Invest. 82:1963-1973, 1988, each incorporated by reference herein). The pseudo first-order inactivation rate constants (kobs) were obtained from plots of ln(vt /vo) vs t, and expressed in terms of the apparent second-order inactivation rate constant, kobs /[I] M^-1 s^-1 (Tables 1-7). Tables 1-7 disclose the activity of preferred compounds of the invention as inhibitors of HLE and Cath G. Table 7 discloses the activity of Compounds 4A (C) and 3E (D) as inhibitors of Proteinase-3 activity. Compounds (A) and (B) have been disclosed previously (Groutas et al., Bioorganic and Med. Chem. 1(4):273-277, 1993; Groutas et al., J. Med. Chem. 36:3178, 1993).
XII. Materials: Human leukocyte elastase was purchased from Elastin Products Co., Owensville, Mo.
Human leukocyte cathepsin G was obtained from Athens Research and Technology, Athens, Ga. Methoxysuccinyl Ala-Ala-Pro-Val p-nitroanilide and methoxysuccinyl Ala-Ala-Pro-Phe p-nitroanilide were purchased from Sigma Chemicals Co., St. Louis, Mo. Baker-analyzed 60-200 mesh silica gel was used for flash chromatography.

[2] = tested on: neutrophil diapedesis (peritonitis); experiment: Inhibition of neutrophil diapedesis after experimentally induced (starch) peritonitis; assay type: in vivo, rat; settings: for Abdominal Lavage Cell Distribution, Lymphocytes / Abdominal Lavage Cell Distribution, Macrophages Monocytes / Abdominal Lavage Cell Distribution, Neutrophils: 4 hours
Description: (§1) Each compound (A-D) was individually injected into the tail vein of a rat in a single dose (8 mg/kg). After injection, peritonitis was induced in the rat by an IP (intraperitoneal) injection of 1 ml of a 0.1% soluble starch solution. After 4 hours, the peritoneal cavity was lavaged with saline in order to determine the number and type of cells responding to peritonitis. Cell numbers were determined by a Coulter counter and cell type (e.g. lymphocytes, neutrophils, macrophages and monocytes) by standard Cytospin and Giemsa staining. Cell number and type was evaluated after IP injection of saline (negative control, no inflammation), starch (positive control, inflammation) or starch with IV injection of an inhibitor (experimental, inflammation). Inhibitors were dissolved in DMSO prior to administration.

rat = experiment: Overt toxicity in injected rats; assay type: in vivo; settings: for overt signs of toxicity: rat, 8 mg/kg twice daily i.v. for three days
Description: (§2) Inhibitor A or B were each injected twice daily into the tail vein of a rat (8 mg/kg) over a period of three days. Inflammation was not induced in these rats. […] WBC=white blood cells; PMN=polymorphonuclear leukocytes; The elastase assay has been disclosed above.
as §1

neutrophil elastase = experiment: Elastase activity and cell number in peripheral blood neutrophils after administration to rats; assay type: in vivo; settings: rat, 8 mg/kg twice daily i.v. for three days; for Elastase Activity / Elastase Activity Rate/10^6 PMN: peripheral blood neutrophils; for Elastase Activity / Elastase Activity Rate/10^6 PMN / PMN / Total WBC: per animal, 8 mg/kg; for effect on elastase activity in circulating neutrophils (in words): vs vehicle
Description: as §2

[3] = tested on: peripheral blood neutrophils and lymphocytes; experiment: Peripheral blood cell distribution after administration to rats without inflammation; assay type: in vivo; settings: rat, 8 mg/kg twice daily for three days; for Peripheral Blood Cell Distribution, Lymphocytes / Peripheral Blood Cell Distribution, Neutrophils / effect on number of neutrophils in peripheral circulation (in words): no inflammation; for Peripheral Blood Cell Distribution, Lymphocytes / Peripheral Blood Cell Distribution, Neutrophils: per animal, 8 mg/kg; for effect on number of neutrophils in peripheral circulation (in words): vs vehicle
Description: Compound A or Compound B were each administered twice daily for three days at a dose of 8 mg/kg. Inflammation was not induced in these rats. […] However, substitution of the aspirin moiety with a fluorine atom, as found in Compound B, prevents an increase in neutrophil cell number.

[4] = Experiment 2, starch, 8 mg/kg i.v. single dose
[5] = Experiment 1, starch, 8 mg/kg i.v. single dose
[6] = Experiment 2, saline (no inflammation) + drug

CC(C)C[C@H]1C(=O)N(CS(=O)(=O)c2ccccc2)S(=O)(=O)N1C [Compound 3E]
inhibition of elastase (in words) [1]: an elastase inhibitor
kinact/KI ([1]; Table 6): 7580 M⁻¹ s⁻¹
Total Number of Cells Lavaged at 4 Hours, Lymphocytes [2, 4]: 6.4 × 10^6
Total Number of Cells Lavaged at 4 Hours, Macrophages Monocytes [2, 4]: 7.7 × 10^6
Total Number of Cells Lavaged at 4 Hours, Neutrophils [2, 4]: 17.9 × 10^6
Total Number of Cells Lavaged at 4 Hours, Total Cells [2, 4]: 32 × 10^6
Abdominal Lavage Cell Distribution, Lymphocytes [2, 4]: 20%
Abdominal Lavage Cell Distribution, Macrophages Monocytes [2, 4]: 24%
Abdominal Lavage Cell Distribution, Neutrophils [2, 4]: 56%
effect on neutrophil diapedesis (in words) ([2]; rat, 8 mg/kg i.v. single dose): substantially reduced neutrophil diapedesis
toxicity (in words) (rat; rat peritonitis test, 8 mg/kg i.v. single dose): non-toxic

CC(=O)Oc1ccccc1C(=O)OCN1C(=O)c2ccccc2S1(=O)=O [Drug A]
Elastase Activity (neutrophil elastase): 0.55 ΔOD/min/ml and 0.70 ΔOD/min/ml
Elastase Activity Rate/10^6 PMN (neutrophil elastase): 0.014 and 0.015
entry into neutrophils in vivo (in words) (neutrophil elastase): do not enter neutrophils in vivo
inactivation of neutrophil intracellular proteinase (in words) (neutrophil elastase): fails to inactivate neutrophil intracellular proteinase
PMN (neutrophil elastase): 41.4 × 10^6 and 45.7 × 10^6
Total WBC (neutrophil elastase): 46.0 × 10^6 and 55.0 × 10^6
effect on elastase activity in circulating neutrophils (in words) (neutrophil elastase): did not reduce elastase activity in circulating neutrophils
Total Number of Cells Lavaged at 4 Hours, Lymphocytes [2, 5]: 7.0 × 10^6
Total Number of Cells Lavaged at 4 Hours, Macrophages Monocytes [2, 5]: 7.6 × 10^6
Total Number of Cells Lavaged at 4 Hours, Neutrophils [2, 5]: 11.0 × 10^6
Total Number of Cells Lavaged at 4 Hours, Total Cells [2, 5]: 25 × 10^6
Abdominal Lavage Cell Distribution, Lymphocytes [2, 5]: 28%
Abdominal Lavage Cell Distribution, Macrophages Monocytes [2, 5]: 38%
Abdominal Lavage Cell Distribution, Neutrophils [2, 5]: 44%
reduction of peritonitis induced neutrophil diapedesis ([2]; rat, 8 mg/kg i.v. single dose): more than 50%
overt signs of toxicity (rat): no overt signs of toxicity
morphology of circulating cells (in words) [3]: most of the circulating cells are morphologically mature
Peripheral Blood Cell Distribution, Lymphocytes [3]: 10% and 17%
Peripheral Blood Cell Distribution, Neutrophils [3]: 90% and 83%
effect on number of neutrophils in peripheral circulation (in words) [3]: caused an increase in the number of neutrophils into the peripheral circulation

O=C1c2ccccc2S(=O)(=O)N1CF [Drug B]
Elastase Activity (neutrophil elastase): 0.125 ΔOD/min/ml and 0.05 ΔOD/min/ml
Elastase Activity Rate/10^6 PMN (neutrophil elastase): 0.0154 and 0.0159
entry into neutrophils in vivo (in words) (neutrophil elastase): do not enter neutrophils in vivo
inactivation of neutrophil intracellular proteinase (in words) (neutrophil elastase): fails to inactivate neutrophil intracellular proteinase
PMN (neutrophil elastase): 8.14 × 10^6 and 3.15 × 10^6
Total WBC (neutrophil elastase): 22.0 × 10^6 and 15.0 × 10^6
effect on elastase activity in circulating neutrophils (in words) (neutrophil elastase): did not reduce elastase activity in circulating neutrophils
Total Number of Cells Lavaged at 4 Hours, Lymphocytes [2, 5]: 8.1 × 10^6
Total Number of Cells Lavaged at 4 Hours, Macrophages Monocytes [2, 5]: 7.8 × 10^6
Total Number of Cells Lavaged at 4 Hours, Neutrophils [2, 5]: 10.1 × 10^6
Total Number of Cells Lavaged at 4 Hours, Total Cells [2, 5]: 26 × 10^6
Abdominal Lavage Cell Distribution, Lymphocytes [2, 5]: 31%
Abdominal Lavage Cell Distribution, Macrophages Monocytes [2, 5]: 30%
Abdominal Lavage Cell Distribution, Neutrophils [2, 5]: 39%
Total Number of Cells Lavaged at 4 Hours, Lymphocytes [2, 6]: 2.6 × 10^6
Total Number of Cells Lavaged at 4 Hours, Macrophages Monocytes [2, 6]: 14.5 × 10^6
Total Number of Cells Lavaged at 4 Hours, Neutrophils [2, 6]: 4.8 × 10^6
Total Number of Cells Lavaged at 4 Hours, Total Cells [2, 6]: 22 × 10^6
Abdominal Lavage Cell Distribution, Lymphocytes [2, 6]: 12%
Abdominal Lavage Cell Distribution, Macrophages Monocytes [2, 6]: 66%
Abdominal Lavage Cell Distribution, Neutrophils [2, 6]: 22%
Total Number of Cells Lavaged at 4 Hours, Lymphocytes [2, 4]: 9.9 × 10^6
Total Number of Cells Lavaged at 4 Hours, Macrophages Monocytes [2, 4]: 9.6 × 10^6
Total Number of Cells Lavaged at 4 Hours, Neutrophils [2, 4]: 12.5 × 10^6
Total Number of Cells Lavaged at 4 Hours, Total Cells [2, 4]: 32 × 10^6
Abdominal Lavage Cell Distribution, Lymphocytes [2, 4]: 31%
Abdominal Lavage Cell Distribution, Macrophages Monocytes [2, 4]: 30%
Abdominal Lavage Cell Distribution, Neutrophils [2, 4]: 39%
reduction of peritonitis induced neutrophil diapedesis ([2]; rat, 8 mg/kg i.v. single dose): more than 50%
overt signs of toxicity (rat): no overt signs of toxicity
Peripheral Blood Cell Distribution, Lymphocytes [3]: 63% and 79%
Peripheral Blood Cell Distribution, Neutrophils [3]: 37% and 21%
effect on number of neutrophils in peripheral circulation (in words) [3]: did not cause an increase in neutrophil number
